# Measurements from patent US20260232658A1, “AZETIDINYL BENZOXAZOLE COMPOUNDS AND THEIR USE AS MER AND AXL INHIBITORS” (DONG-A ST CO., LTD., priority 2022, published 2026).
# Legend:
# [1] = molecular target: T1, human AXL (473-end) (Homo sapiens, UniProt P30530); test: HTRF kinase activity biochemical assay, AXL; conditions: recombinant kinase, 10 uM ATP, 30 minutes pre-incubation; read-out: HTRF AXL IC50;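 note: phosphorylation of a biotinylated tyrosine kinase substrate detected via Eu3+-cryptate anti-TK antibody and streptavidin-XL665, fluorescence read after a 1 h incubation at room temperature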
# T1 construct: human AXL (473-end); purchased SignalChem, Canada
# T1 sequence (P30530 473-894 limits assumed): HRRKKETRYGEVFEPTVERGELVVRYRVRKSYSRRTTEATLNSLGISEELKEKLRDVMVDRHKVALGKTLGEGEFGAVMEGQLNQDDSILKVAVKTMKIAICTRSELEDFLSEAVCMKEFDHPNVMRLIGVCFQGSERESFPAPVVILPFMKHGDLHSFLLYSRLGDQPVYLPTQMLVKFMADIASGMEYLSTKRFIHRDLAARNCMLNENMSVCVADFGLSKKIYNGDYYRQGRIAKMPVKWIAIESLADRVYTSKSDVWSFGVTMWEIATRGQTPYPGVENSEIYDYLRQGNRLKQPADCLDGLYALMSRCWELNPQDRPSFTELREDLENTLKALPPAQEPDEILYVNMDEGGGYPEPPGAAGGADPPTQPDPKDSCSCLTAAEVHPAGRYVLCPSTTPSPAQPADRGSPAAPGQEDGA
# [2] = molecular target: T2, TYRO3 (455-end) (Homo sapiens, UniProt Q06418); test: HTRF kinase activity biochemical assay, TYRO3; conditions: recombinant kinase, 10 uM ATP, 30 minutes pre-incubation; read-out: HTRF TYRO IC50;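 note: biotinylated tyrosine kinase substrate phosphorylation detected via streptavidin-XL665 and Eu3+-cryptate anti-phospho antibody time-resolved fluorescence, read after 1 h detection at room temperature, 384-well format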
# T2 construct: TYRO3 (455-end); purchased SignalChem, Canada
# T2 sequence (Q06418 455-890 limits assumed): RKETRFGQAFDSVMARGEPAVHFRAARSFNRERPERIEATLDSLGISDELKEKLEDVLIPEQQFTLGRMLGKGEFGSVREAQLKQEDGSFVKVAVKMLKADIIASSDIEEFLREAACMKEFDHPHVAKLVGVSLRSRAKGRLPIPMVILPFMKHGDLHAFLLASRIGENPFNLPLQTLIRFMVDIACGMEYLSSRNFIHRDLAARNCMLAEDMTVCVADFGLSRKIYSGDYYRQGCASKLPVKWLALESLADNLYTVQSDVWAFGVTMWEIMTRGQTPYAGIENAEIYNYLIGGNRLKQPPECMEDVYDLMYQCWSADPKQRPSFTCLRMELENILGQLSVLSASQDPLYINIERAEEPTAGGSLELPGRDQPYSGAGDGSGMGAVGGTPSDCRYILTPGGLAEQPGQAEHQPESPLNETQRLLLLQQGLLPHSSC
# [3] = molecular target: T3, human MER (528-end) (Homo sapiens, UniProt Q12866); test: HTRF kinase activity biochemical assay, MER; conditions: recombinant kinase, 10 uM ATP, 30 minutes pre-incubation; read-out: HTRF MERTK IC50;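 note: phosphorylation of a biotin-tagged tyrosine kinase substrate detected by Eu3+-cryptate antibody and streptavidin-XL665 time-resolved fluorescence, read after 1 h at room temperature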
# T3 construct: human MER (528-end); purchased Carnabio, Japan
# T3 sequence (Q12866 528-999 limits assumed): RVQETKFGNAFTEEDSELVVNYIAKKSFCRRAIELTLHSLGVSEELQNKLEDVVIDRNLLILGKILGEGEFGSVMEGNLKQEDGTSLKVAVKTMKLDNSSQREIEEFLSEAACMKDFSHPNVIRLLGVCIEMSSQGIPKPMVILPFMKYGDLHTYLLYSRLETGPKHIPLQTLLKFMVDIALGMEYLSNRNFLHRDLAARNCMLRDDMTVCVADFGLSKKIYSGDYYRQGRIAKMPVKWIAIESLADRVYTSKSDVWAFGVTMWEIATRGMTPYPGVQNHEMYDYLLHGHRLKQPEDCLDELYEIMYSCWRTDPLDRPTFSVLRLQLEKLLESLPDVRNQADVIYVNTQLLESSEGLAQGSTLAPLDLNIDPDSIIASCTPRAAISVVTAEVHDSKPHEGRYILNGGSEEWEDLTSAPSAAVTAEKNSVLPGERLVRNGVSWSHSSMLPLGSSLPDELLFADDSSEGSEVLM
SMILES,IC50 [1],IC50 [2],IC50 [3]
"Cn1cc(Nc2ncc(C3CN(c4nc5ccc(OC[C@H]6COCCO6)cc5o4)C3)nc2C(N)=O)cn1 [Example 48, 6-[1-(6-{[(2R)-1,4-dioxan-2-yl]methoxy}-1,3-benzoxazol-2-yl)azetidin-3-yl]-3-[(1-methyl-1H-pyrazol-4-yl)amino]pyrazine-2-carboxamide]",0.003 µM,0.23 µM,0.002 µM
"Cn1cc(Nc2ncc(C3CN(c4nc5ccc(OCC(=O)N6CCCC6)cc5o4)C3)nc2C(N)=O)cn1 [Example 49, 3-[(1-methyl-1H-pyrazol-4-yl)amino]-6-(1-{6-[2-oxo-2-(pyrrolidin-1-yl)ethoxy]-1,3-benzoxazol-2-yl}azetidin-3-yl)pyrazine-2-carboxamide]",0.011 µM,2.03 µM,0.004 µM
"CNC(=O)Cc1ccc2nc(N3CC(c4cnc(Nc5cnn(C)c5)c(C(N)=O)n4)C3)oc2c1 [Example 50, 6-(1-{6-[2-(methylamino)-2-oxoethyl]-1,3-benzoxazol-2-yl}azetidin-3-yl)-3-[(1-methyl-1H-pyrazol-4-yl)amino]pyrazine-2-carboxamide]",0.016 µM,3.55 µM,0.009 µM
"Cn1cc(Nc2ncc(C3CN(c4nc5ccc(OCC(CO)CO)cc5o4)C3)nc2C(N)=O)cn1 [Example 51, 6-(1-{6-[3-hydroxy-2-(hydroxymethyl)propoxy]-1,3-benzoxazol-2-yl}azetidin-3-yl)-3-[(1-methyl-1H-pyrazol-4-yl)amino]pyrazine-2-carboxamide]",0.006 µM,1.74 µM,0.003 µM
"Cn1cc(Nc2ncc(C3CN(c4nc5ccc(OCC6COC(C)(C)OC6)cc5o4)C3)nc2C(N)=O)cn1 [Example 51A, 6-(1-{6-[(2,2-dimethyl-1,3-dioxan-5-yl)methoxy]-1,3-benzoxazol-2-yl}azetidin-3-yl)-3-[(1-methyl-1H-pyrazol-4-yl)amino]pyrazine-2-carboxamide]",0.017 µM,2.38 µM,0.002 µM
"Cn1cc(Nc2ncc(C3CN(c4nc5ccc(C(=O)NC6CC6)cc5o4)C3)nc2C(N)=O)cn1 [Example 53, 2-(3-{6-carbamoyl-5-[(1-methyl-1H-pyrazol-4-yl)amino]pyrazin-2-yl}azetidin-1-yl)-N-cyclopropyl-1,3-benzoxazole-6-carboxamide]",0.002 µM,2.67 µM,0.004 µM
"Cc1ccc2nc(N3CC(c4cnc(Nc5cnn(CCO)c5)c(C(N)=O)n4)C3)oc2c1 [Example 54, 3-{[1-(2-hydroxyethyl)-1H-pyrazol-4-yl]amino}-6-[1-(6-methyl-1,3-benzoxazol-2-yl)azetidin-3-yl]pyrazine-2-carboxamide]",0.023 µM,0.62 µM,0.005 µM
"COCCn1cc(Nc2ncc(C3CN(c4nc5ccc(C)cc5o4)C3)nc2C(N)=O)cn1 [Example 55, 3-{[1-(2-methoxyethyl)-1H-pyrazol-4-yl]amino}-6-[1-(6-methyl-1,3-benzoxazol-2-yl)azetidin-3-yl]pyrazine-2-carboxamide]",0.014 µM,0.22 µM,0.003 µM
"Cn1cc(Nc2ncc(C3CN(c4nc5ccc(OCC6CC(CO)C6)cc5o4)C3)nc2C(N)=O)cn1 (stereo not drawn) [Example 56, 6-[1-(6-{[3-(hydroxymethyl)cyclobutyl]methoxy}-1,3-benzoxazol-2-yl)azetidin-3-yl]-3-[(1-methyl-1H-pyrazol-4-yl)amino]pyrazine-2-carboxamide]",0.002 µM,0.092 µM,< 0.001 µM
"Cn1cc(Nc2ncc(C3CN(c4nc5ccc(OCC6(O)COC6)cc5o4)C3)nc2C(N)=O)cn1 [Example 57, 6-(1-{6-[(3-hydroxyoxetan-3-yl)methoxy]-1,3-benzoxazol-2-yl}azetidin-3-yl)-3-[(1-methyl-1H-pyrazol-4-yl)amino]pyrazine-2-carboxamide]",0.008 µM,2.31 µM,0.007 µM
"Cn1cc(Nc2ncc(C3CN(c4nc5ccc(OC[C@H]6C[C@H]6CO)cc5o4)C3)nc2C(N)=O)cn1 [Example 58, 6-[1-(6-{1[(1S,2R)-2-(hydroxymethyl)cyclopropyl]methoxy}-1,3-benzoxazol-2-yl)azetidin-3-yl]-3-[(1-methyl-1H-pyrazol-4-yl)amino]pyrazine-2-carboxamide]",0.001 µM,0.033 µM,< 0.001 µM
"Cn1cc(Nc2ncc(C3CN(c4nc5ccc(C(=O)N6CCC[C@@H]6CO)cc5o4)C3)nc2C(N)=O)cn1 [Example 59, 6-(1-{6-[(2R)-2-(hydroxymethyl)pyrrolidine-1-carbonyl]-1,3-benzoxazol-2-yl}azetidin-3-yl)-3-[(1-methyl-1H-pyrazol-4-yl)amino]pyrazine-2-carboxamide]",0.002 µM,0.03 µM,< 0.001 µM
"Cn1cc(Nc2ncc(C3CN(c4nc5ccc(OCCCc6ccccc6)cc5o4)C3)nc2C(N)=O)cn1 [Example 60, 3-[(1-methyl-1H-pyrazol-4-yl)amino]-6-{1-[6-(3-phenylpropoxy)-1,3-benzoxazol-2-yl]azetidin-3-yl}pyrazine-2-carboxamide]",0.001 µM,0.1 µM,< 0.001 µM
"Cn1cc(Nc2ncc(C3CN(c4nc5ccc(OCC(C)(C)CO)cc5o4)C3)nc2C(N)=O)cn1 [Example 61, 6-{1-[6-(3-hydroxy-2,2-dimethylpropoxy)-1,3-benzoxazol-2-yl]azetidin-3-yl}-3-[(1-methyl-1H-pyrazol-4-yl)amino]pyrazine-2-carboxamide]",0.001 µM,0.026 µM,< 0.001 µM
"CN(C)C(=O)CCc1ccc2nc(N3CC(c4cnc(Nc5cnn(C)c5)c(C(N)=O)n4)C3)oc2c1 [Example 62, 6-(1-{6-[3-(dimethylamino)-3-oxopropyl]-1,3-benzoxazol-2-yl}azetidin-3-yl)-3-[(1-methyl-1H-pyrazol-4-yl)amino]pyrazine-2-carboxamide]",0.006 µM,1.75 µM,0.003 µM
"Cn1cc(Nc2ncc(C3CN(c4nc5ccc(CCC(=O)N6CCCC6)cc5o4)C3)nc2C(N)=O)cn1 [Example 63, 3-[(1-methyl-1H-pyrazol-4-yl)amino]-6-(1-{6-[3-oxo-3-(pyrrolidin-1-yl)propyl]-1,3-benzoxazol-2-yl}azetidin-3-yl)pyrazine-2-carboxamide]",0.016 µM,4.3 µM,0.011 µM
"COC[C@H]1CCCN1C(=O)c1ccc2nc(N3CC(c4cnc(Nc5cnn(C)c5)c(C(N)=O)n4)C3)oc2c1 [Example 64, 6-(1-{6-[(2R)-2-(methoxymethyl)pyrrolidine-1-carbonyl]-1,3-benzoxazol-2-yl}azetidin-3-yl)-3-[(1-methyl-1H-pyrazol-4-yl)amino]pyrazine-2-carboxamide]",0.005 µM,0.037 µM,< 0.001 µM
"Cn1cc(Nc2ncc(C3CN(c4nc5ccc(CC(=O)N6CCCC6)cc5o4)C3)nc2C(N)=O)cn1 [Example 65, 3-[(1-methyl-1H-pyrazol-4-yl)amino]-6-(1-{6-[2-oxo-2-(pyrrolidin-1-yl)ethyl]-1,3-benzoxazol-2-yl}azetidin-3-yl)pyrazine-2-carboxamide]",0.001 µM,1.01 µM,< 0.001 µM
"Cn1cc(Nc2ncc(C3CN(c4nc5ccc(CC(=O)O)cc5o4)C3)nc2C(N)=O)cn1 [Example 65C, [2-(3-{6-carbamoyl-5-[(1-methyl-1H-pyrazol-4-yl)amino]pyrazin-2-yl}azetidin-1-yl)-1,3-benzoxazol-6-yl]acetic acid]",0.095 µM,3.53 µM,0.035 µM
